{"source": "paper PMC10041525", "about": "“New Dual Inhibitors of Bacterial Topoisomerases with Broad-Spectrum Antibacterial Activity and In Vivo Efficacy against Vancomycin-Intermediate Staphylococcus aureus” (Journal of Medicinal Chemistry, 2023)", "key": {"[1]": {"test_system": "A. baumannii BM4652 and NMI clinical isolates", "assay": "MIC, wild-type, efflux-defective and MDR clinical isolates", "type": "cell-based", "settings": "Acinetobacter baumannii"}, "[2]": {"test_system": "E. coli ATCC 25922, CH3130 ΔtolC, CGSC 5163 D22", "assay": "MIC, wild-type vs efflux-defective and lps mutant", "type": "cell-based", "settings": "Escherichia coli"}, "[3]": {"test_system": "Chinese hamster ovary K1 cells", "assay": "in vitro micronucleus test"}, "[4]": {"target": "A. baumannii DNA gyrase (Acinetobacter baumannii, UniProt A0ABX6CA01)", "assay": "gel-based supercoiling assay", "type": "biochemical"}, "[5]": {"target": "A. baumannii topo IV (Acinetobacter baumannii, UniProt A0ABX6CMT0)", "assay": "gel-based decatenation assay"}, "[6]": {"target": "T1, hERG channel (Homo sapiens, UniProt Q12809)", "T1 construct": "expressed in transfected cells; host or cells: HEK293 cells stably expressing the channel", "T1 sequence (Q12809 whole entry)": "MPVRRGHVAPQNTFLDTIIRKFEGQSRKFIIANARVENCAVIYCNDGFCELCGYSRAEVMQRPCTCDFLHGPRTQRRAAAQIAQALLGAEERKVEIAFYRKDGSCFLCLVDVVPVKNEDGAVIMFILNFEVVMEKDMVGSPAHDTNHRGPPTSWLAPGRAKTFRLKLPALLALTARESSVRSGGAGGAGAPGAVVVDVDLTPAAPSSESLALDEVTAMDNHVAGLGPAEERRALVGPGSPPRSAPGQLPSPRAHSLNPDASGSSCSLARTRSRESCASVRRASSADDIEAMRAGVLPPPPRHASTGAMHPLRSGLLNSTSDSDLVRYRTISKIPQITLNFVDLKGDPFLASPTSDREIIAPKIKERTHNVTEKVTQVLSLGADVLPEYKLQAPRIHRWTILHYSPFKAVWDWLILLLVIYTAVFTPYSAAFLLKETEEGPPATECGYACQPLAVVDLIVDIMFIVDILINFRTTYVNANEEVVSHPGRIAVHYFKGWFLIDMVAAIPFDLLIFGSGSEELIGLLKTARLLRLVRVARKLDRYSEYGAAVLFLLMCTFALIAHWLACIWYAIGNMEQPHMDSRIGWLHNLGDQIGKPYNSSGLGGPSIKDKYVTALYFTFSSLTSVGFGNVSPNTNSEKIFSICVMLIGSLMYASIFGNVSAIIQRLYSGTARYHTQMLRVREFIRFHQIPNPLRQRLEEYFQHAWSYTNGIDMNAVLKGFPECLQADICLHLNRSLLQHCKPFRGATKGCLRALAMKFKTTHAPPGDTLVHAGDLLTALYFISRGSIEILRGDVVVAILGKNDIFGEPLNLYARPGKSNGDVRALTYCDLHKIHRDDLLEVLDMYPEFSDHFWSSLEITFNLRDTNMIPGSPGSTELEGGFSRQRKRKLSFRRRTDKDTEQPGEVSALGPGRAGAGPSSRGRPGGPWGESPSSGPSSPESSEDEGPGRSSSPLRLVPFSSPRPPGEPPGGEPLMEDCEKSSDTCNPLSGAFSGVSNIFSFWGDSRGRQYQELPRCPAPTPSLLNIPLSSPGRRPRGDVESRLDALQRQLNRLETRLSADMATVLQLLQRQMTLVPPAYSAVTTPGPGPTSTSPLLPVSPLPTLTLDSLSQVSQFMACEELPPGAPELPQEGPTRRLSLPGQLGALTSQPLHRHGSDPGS", "assay": "whole-cell patch-clamp on HEK293 cells", "type": "cell-based", "settings": "50 µM 7a, mean ± SD", "excerpt": "hERG inhibition was additionally determined in whole-cell patch-clamp experiments on HEK293 cells stably expressing the channel, as previously described.[55]"}, "[7]": {"test_system": "P. aeruginosa PAO1, PAO750", "assay": "MIC, wild-type vs efflux-defective", "type": "cell-based", "settings": "Pseudomonas aeruginosa"}, "[8]": {"assay": "hemolysis assay", "type": "cell-based", "settings": "human, red blood cells, pH 7.4; read-out: Haemolysis", "experimental": "RBCs were washed three times in Tyrode buffer (130 mM NaCl, 4 mM KCl, 2.8 mM Na acetate, 1 mM MgCl2, 10 mM HEPES, 10 mM glucose, 1 mM CaCl2, adjusted to pH 7.4) and resuspended in the same buffer. Final concentrations in the hemolysis assay were 100 μM compound, 1% DMSO, and 50% RBC, assayed in a 200 μL volume in a microtiter plate. The mixture was incubated at 37 °C for 45 min with shaking (250 rpm). After incubation, RBCs were removed by centrifugation, clear plasma was transferred to a fresh plate, and the amount of hemoglobin was measured using a spectrophotometer at 540 nm. The complete lysis control contained 2% Triton X-100 (in Tyrode buffer) instead of compound; the negative control contained Tyrode buffer but no compound. Percent hemolysis was calculated as: [Abs compound] – [Abs negative control]/[Abs complete lysis control] – [Abs negative control] × 100. Values greater than 1% hemolysis at 100 μM were regarded as a red flag."}, "[9]": {"target": "S. aureus DNA gyrase (Staphylococcus aureus, UniProt P0A0K8)", "assay": "gel-based supercoiling assay"}, "[10]": {"target": "T2, sodium Nav1.5 ion channel (Homo sapiens, UniProt Q14524)", "T2 construct": "expressed in transfected cells; host or cells: CHO cells (stably transfected)", "T2 sequence (Q14524 whole entry)": "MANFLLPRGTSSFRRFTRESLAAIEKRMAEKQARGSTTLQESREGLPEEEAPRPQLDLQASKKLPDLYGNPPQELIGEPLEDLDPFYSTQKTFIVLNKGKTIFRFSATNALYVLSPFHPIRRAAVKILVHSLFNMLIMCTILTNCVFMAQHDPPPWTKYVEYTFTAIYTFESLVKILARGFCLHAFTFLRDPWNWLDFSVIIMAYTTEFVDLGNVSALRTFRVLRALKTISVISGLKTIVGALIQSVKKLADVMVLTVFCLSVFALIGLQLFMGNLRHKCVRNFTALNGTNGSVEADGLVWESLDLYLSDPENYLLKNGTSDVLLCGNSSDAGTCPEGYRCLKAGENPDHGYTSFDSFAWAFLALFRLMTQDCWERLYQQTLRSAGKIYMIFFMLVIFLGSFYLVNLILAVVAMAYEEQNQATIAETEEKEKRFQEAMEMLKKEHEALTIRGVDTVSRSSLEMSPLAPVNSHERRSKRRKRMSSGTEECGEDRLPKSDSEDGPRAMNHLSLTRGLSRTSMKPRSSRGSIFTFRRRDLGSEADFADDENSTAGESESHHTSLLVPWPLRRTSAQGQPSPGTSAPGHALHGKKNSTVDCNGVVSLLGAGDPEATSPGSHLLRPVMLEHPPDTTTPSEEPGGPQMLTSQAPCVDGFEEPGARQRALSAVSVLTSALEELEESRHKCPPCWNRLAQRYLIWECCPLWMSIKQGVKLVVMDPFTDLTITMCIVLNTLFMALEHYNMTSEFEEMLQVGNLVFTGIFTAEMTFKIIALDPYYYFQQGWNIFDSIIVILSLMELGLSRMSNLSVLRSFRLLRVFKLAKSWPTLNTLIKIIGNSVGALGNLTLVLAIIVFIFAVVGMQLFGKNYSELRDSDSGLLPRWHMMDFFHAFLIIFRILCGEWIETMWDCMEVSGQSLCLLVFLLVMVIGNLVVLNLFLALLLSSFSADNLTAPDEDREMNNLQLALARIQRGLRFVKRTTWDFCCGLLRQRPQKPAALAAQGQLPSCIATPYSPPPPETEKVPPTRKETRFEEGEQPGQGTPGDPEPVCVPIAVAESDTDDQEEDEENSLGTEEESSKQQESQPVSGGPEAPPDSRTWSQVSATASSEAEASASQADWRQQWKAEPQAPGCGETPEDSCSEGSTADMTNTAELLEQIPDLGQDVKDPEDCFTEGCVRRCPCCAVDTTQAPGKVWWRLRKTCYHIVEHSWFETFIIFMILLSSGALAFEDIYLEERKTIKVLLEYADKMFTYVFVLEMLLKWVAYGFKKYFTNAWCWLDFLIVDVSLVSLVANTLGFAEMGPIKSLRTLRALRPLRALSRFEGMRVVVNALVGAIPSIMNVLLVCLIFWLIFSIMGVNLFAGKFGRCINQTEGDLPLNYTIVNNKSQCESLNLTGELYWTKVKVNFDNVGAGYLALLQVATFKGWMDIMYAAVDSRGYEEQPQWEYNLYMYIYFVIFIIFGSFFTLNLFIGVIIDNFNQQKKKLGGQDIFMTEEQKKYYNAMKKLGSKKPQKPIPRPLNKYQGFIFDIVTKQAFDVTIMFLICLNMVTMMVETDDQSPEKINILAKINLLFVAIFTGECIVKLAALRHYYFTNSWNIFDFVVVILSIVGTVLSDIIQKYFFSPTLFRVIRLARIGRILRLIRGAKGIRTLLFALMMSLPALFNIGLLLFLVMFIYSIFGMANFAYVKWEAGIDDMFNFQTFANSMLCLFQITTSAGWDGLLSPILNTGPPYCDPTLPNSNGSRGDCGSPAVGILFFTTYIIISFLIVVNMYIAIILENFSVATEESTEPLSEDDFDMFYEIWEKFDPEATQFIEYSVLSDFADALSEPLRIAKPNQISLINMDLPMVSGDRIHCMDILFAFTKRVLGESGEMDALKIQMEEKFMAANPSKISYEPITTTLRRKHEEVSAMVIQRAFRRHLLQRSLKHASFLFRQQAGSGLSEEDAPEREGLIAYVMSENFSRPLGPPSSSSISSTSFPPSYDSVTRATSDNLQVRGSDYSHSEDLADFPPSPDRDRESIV", "assay": "patch-clamp on transfected CHO cells", "type": "cell-based", "experimental": "(§1) hERG and NaV1.5 inhibition was measured with the patch-clamp method on stably transfected CHO cells according to previously described procedures.[34] […] The normalized hERG/NaV1.5 current is reported as mean ± standard error of the mean (SEM, N = 5–6)."}, "[11]": {"target": "T3, hERG potassium ion channel (Homo sapiens, UniProt Q12809)", "T3 construct": "expressed in transfected cells; host or cells: CHO cells (stably transfected)", "T3 sequence (Q12809 whole entry)": "as the sequence (Q12809 whole entry) above", "assay": "patch-clamp on transfected CHO cells", "type": "cell-based", "experimental": "as §1"}, "[12]": {"assay": "mitochondrial toxicity glu/gal assay", "type": "cell-based", "settings": "human, read-out: cell viability (ATP), % of control", "experimental": "(§2) HepG2 cells were seeded in two 96-well plates at a density of 50,000 cells per well in 100 μL of growth medium. For the first plate, the growth medium contained glucose and for the second plate, it contained galactose. Cells were incubated overnight in a 5% CO2 atmosphere at 37 °C and allowed to attach onto the wells. […] The medium contained positive control (Rotenone). […] Luminescence was measured with Tecan Infinite 200 pro luminometer, and the values from each well treated with compound were compared to the values given by the negative control (medium only). The inhibition of mitochondrial function was determined by comparing ATP levels in galactose and glucose exposed cells. […]"}, "[13]": {"test_system": "HepG2 cells", "assay": "mitochondrial toxicity glu/gal assay", "type": "cell-based", "settings": "human", "experimental": "as §2"}, "[14]": {"assay": "in vitro", "settings": "pH 7.4; for Clint (pred. in vivo) / half-life at 1 h, 1 µM: microsomes", "experimental": "Liver microsomal fractions were purchased from XenoTech LLC, (KS, USA). […] To initiate the reaction, 1 mM NADPH was added. Samples were taken at 0, 5, 10, 20, 40, and 60 min. To terminate the reaction, cold acetonitrile with warfarin as an internal standard was added. LC–MS/MS was used to analyze the samples and determine the amount of remaining parent compound. The LC–MS/MS method was the same as described above in Chapter LogD Determination."}, "[15]": {"test_system": "H. influenzae ATCC 49766", "design": "method as in earlier work", "settings": "QC range for H. influenzae ATCC 49766, ref CLSI; cited from earlier work"}}, "note": "Where two headings read alike, the source gives them in different places.", "data": [{"compound": "Cc1[nH]c(C(=O)Nc2nc3c(N4CCOCC4)cc(C(=O)O)cc3s2)c(Cl)c1Cl", "note": "[7a, 2-(3,4-Dichloro-5-methyl-1H-pyrrole-2-carboxamido)-4-morpholinobenzo[d]thiazole-6-carboxylic Acid]", "values": [{"measurement": "MIC", "setting": "[1]; A. baumannii BM4652, efflux-defective", "value": "< 0.125", "unit": "µg/mL"}, {"measurement": "MIC", "setting": "[1]; A. baumannii NMI 2692/14, clinical MDR", "value": 1, "unit": "µg/mL"}, {"measurement": "MIC", "setting": "[1]; A. baumannii NMI 2699/14, clinical MDR", "value": 1, "unit": "µg/mL"}, {"measurement": "MIC", "setting": "[1]; A. baumannii NMI 2704/14, clinical MDR", "value": 1, "unit": "µg/mL"}, {"measurement": "MIC", "setting": "[2]; ATCC25922, E. coli ATCC 25922", "value": 8, "unit": "µg/mL"}, {"measurement": "MIC", "setting": "[2]; ATCC25922, E. coli CGSC 5163 D22, lps mutant, hypersensitive", "value": 2, "unit": "µg/mL"}, {"measurement": "MIC", "setting": "[2]; ATCC25922, E. coli CH3130 ΔtolC, efflux-defective", "value": "< 0.125", "unit": "µg/mL"}, {"measurement": "% Micronuclei", "setting": "[3]; with S9, 25 µM", "value": 2.7, "unit": "%"}, {"measurement": "No. binucleate cells", "setting": "[3]; with S9, 25 µM", "value": 1707}, {"measurement": "% Cytostasis", "setting": "[3]; with S9, 50 µM", "value": 1.4, "unit": "%"}, {"measurement": "% Micronuclei", "setting": "[3]; with S9, 50 µM", "value": 4.5, "unit": "%"}, {"measurement": "No. binucleate cells", "setting": "[3]; with S9, 50 µM", "value": 1296}, {"measurement": "% Cytostasis", "setting": "[3]; with S9, 100 µM", "value": "tox"}, {"measurement": "genotoxic concentration (no genotoxicity up to)", "setting": "[3]; with S9 activation", "value": "> 50", "unit": "µM"}, {"measurement": "% Micronuclei", "setting": "[3]; without S9, 6.25 µM", "value": 2.8, "unit": "%"}, {"measurement": "No. binucleate cells", "setting": "[3]; without S9, 6.25 µM", "value": 3160}, {"measurement": "% Micronuclei", "setting": "[3]; without S9, 25 µM", "value": 2.5, "unit": "%"}, {"measurement": "No. binucleate cells", "setting": "[3]; without S9, 25 µM", "value": 2644}, {"measurement": "% Cytostasis", "setting": "[3]; without S9, 50 µM", "value": 0.1, "unit": "%"}, {"measurement": "% Micronuclei", "setting": "[3]; without S9, 50 µM", "value": 4.4, "unit": "%"}, {"measurement": "No. binucleate cells", "setting": "[3]; without S9, 50 µM", "value": 1687}, {"measurement": "% Cytostasis", "setting": "[3]; without S9, 100 µM", "value": 40.8, "unit": "%"}, {"measurement": "% Micronuclei", "setting": "[3]; without S9, 100 µM", "value": 7, "unit": "%"}, {"measurement": "No. binucleate cells", "setting": "[3]; without S9, 100 µM", "value": 642}, {"measurement": "% Micronuclei", "setting": "[3]; without S9, […]", "value": 2.7, "unit": "%"}, {"measurement": "genotoxic concentration (no genotoxicity up to)", "setting": "[3]; without metabolic activation", "value": "> 100", "unit": "µM"}, {"measurement": "IC50", "setting": "[4]", "value": "2.42 ± 0.28", "unit": "nM"}, {"measurement": "IC50", "setting": "[5]", "value": "120 ± 8.34", "unit": "nM"}, {"measurement": "hERG inhibition (current reduction)", "setting": "[6]", "value": "0 ± 12", "unit": "%"}, {"measurement": "MIC", "setting": "[7]; PAO1, P. aeruginosa PAO1", "value": "> 64", "unit": "µg/mL"}, {"measurement": "MIC", "setting": "[7]; PAO1, P. aeruginosa PAO750, efflux-defective", "value": 0.25, "unit": "µg/mL"}, {"measurement": "hemolysis at 45 min, 100 μM", "setting": "[8]", "value": "0.28 ± 0.01", "unit": "%"}, {"measurement": "IC50", "setting": "[9]", "value": "1.22 ± 0.04", "unit": "nM"}, {"measurement": "inhibition of Nav1.5", "setting": "[10]; 10 µM", "value": "no significant inhibition"}, {"measurement": "Nav1.5 current fraction (normalized to neg. control)", "setting": "[10]; 10 µM 7a, mean ± SEM", "value": "0.97 ± 0.03"}, {"measurement": "inhibition of hERG", "setting": "[11]; 50 µM", "value": "no significant inhibition"}, {"measurement": "hERG current fraction (normalized to neg. control)", "setting": "[11]; 50 µM 7a, mean ± SEM", "value": "1.01 ± 0.02"}, {"measurement": "viability at 10 µM", "setting": "[12]; galactose", "value": 98, "unit": "%"}, {"measurement": "viability at 50 µM", "setting": "[12]; galactose", "value": 98, "unit": "%"}, {"measurement": "viability at 100 µM", "setting": "[12]; galactose", "value": 97, "unit": "%"}, {"measurement": "viability at 300 µM", "setting": "[12]; galactose", "value": 98, "unit": "%"}, {"measurement": "viability at 600 µM", "setting": "[12]; galactose", "value": 94, "unit": "%"}, {"measurement": "viability at 1000 µM", "setting": "[12]; galactose", "value": 83, "unit": "%"}, {"measurement": "viability at 10 µM", "setting": "[12]; glucose", "value": 109, "unit": "%"}, {"measurement": "viability at 50 µM", "setting": "[12]; glucose", "value": 107, "unit": "%"}, {"measurement": "viability at 100 µM", "setting": "[12]; glucose", "value": 105, "unit": "%"}, {"measurement": "viability at 300 µM", "setting": "[12]; glucose", "value": 99, "unit": "%"}, {"measurement": "viability at 600 µM", "setting": "[12]; glucose", "value": 95, "unit": "%"}, {"measurement": "viability at 1000 µM", "setting": "[12]; glucose", "value": 79, "unit": "%"}, {"measurement": "mitotoxic concentration (not mitotoxic up to)", "setting": "[13]", "value": "> 1000", "unit": "µM"}, {"measurement": "Clint (pred. in vivo)", "setting": "[14]; human", "value": 630, "unit": "mL/min"}, {"measurement": "half-life at 1 h, 1 µM", "setting": "[14]; human", "value": 1.72, "unit": "h"}, {"measurement": "ClH (pred.)", "setting": "[14]; human", "value": 14, "unit": "mL/min"}, {"measurement": "Epred", "setting": "[14]; human", "value": 0.01}, {"measurement": "Clint (pred. in vivo)", "setting": "[14]; mouse", "value": 1.3, "unit": "mL/min"}, {"measurement": "half-life at 1 h, 1 µM", "setting": "[14]; mouse", "value": 1.45, "unit": "h"}, {"measurement": "ClH (pred.)", "setting": "[14]; mouse", "value": 0.03, "unit": "mL/min"}, {"measurement": "Epred", "setting": "[14]; mouse", "value": 0.01}]}, {"compound": "C[C@@H](O)[C@H]1C(=O)N2C(C(=O)O)=C(SCCNC=N)C[C@H]12", "note": "[Imipenem, imipenem]", "values": [{"measurement": "MIC, CLSI Range", "setting": "[15]", "value": "0,25 - 1 µg/mL"}]}]}
